Measurements reported in the CheMixHub viscosity set.
“And” between values parts separate entries of the source, which are not always exact repeats. Identical values can stand only once.

Legend:
[1] = xn = mol fraction of the nth substance listed

Nc1cccc(Cl)c1Cl
Details | viscosity [mPa·s]
313.15 K, 101 kPa | 3.74

O=C1CCCCO1
101 kPa
Details | viscosity [mPa·s]
303.15 K | 2.758
308.15 K | 2.496
313.15 K | 2.313
318.15 K | 2.119

CC(=O)OCC(COC(C)=O)OC(C)=O
101.33 kPa
Details | viscosity [mPa·s]
298 K | 16.31
303 K | 12.62
308 K | 10.03
313 K | 8.12

BrCCBr
viscosity
Details | 298.15 K | 308.15 K | 323.15 K
101 kPa | 1.613 mPa·s | – | –
101.33 kPa | 1.616 mPa·s and 1.564 mPa·s | 1.384 mPa·s | 1.107 mPa·s

C#Cc1ccccc1
Details | viscosity [mPa·s]
298.15 K, 101 kPa | 0.8829

COC(=O)CC(=O)OC
Details | viscosity [mPa·s]
303.15 K, 101 kPa | 1.804

CC(F)(F)Cl
101 kPa
Details | viscosity [mPa·s]
293.15 K | 0.2489
293.35 K | 0.2432
293.45 K | 0.2381
313.15 K | 0.2004
313.25 K | 0.2015
313.35 K | 0.2002

C1=C[C@H]2[C@@H](C1)[C@H]1C=C[C@@H]2C1 + CCO
viscosity [mPa·s], [1], 101.2 kPa
Details | x1 = 0.1001 | x1 = 0.1997 | x1 = 0.2973 | x1 = 0.4003 | x1 = 0.501 | x1 = 0.6023 | x1 = 0.699 | x1 = 0.8013 | x1 = 0.9002
293.15 K | 1.493 | 1.788 | 2.076 | 2.381 | 2.68 | 3.001 | 3.332 | 3.701 | 4.073
303.15 K | 1.232 | 1.449 | 1.657 | 1.879 | 2.098 | 2.339 | 2.595 | 2.879 | 3.161
313.15 K | 1.038 | 1.209 | 1.369 | 1.541 | 1.718 | 1.911 | 2.111 | 2.345 | 2.579

C1COCCO1 + CN(C)C=O
viscosity [mPa·s], [1], 101 kPa
Details | x2 = 0.1181 | x2 = 0.2316 | x2 = 0.3406 | x2 = 0.4455 | x2 = 0.5465 | x2 = 0.6439 | x2 = 0.7377 | x2 = 0.8282 | x2 = 0.9156
298.15 K | 1.109 | 1.043 | 0.984 | 0.934 | 0.891 | 0.859 | 0.835 | 0.82 | 0.811
308.15 K | 0.952 | 0.899 | 0.849 | 0.807 | 0.772 | 0.746 | 0.726 | 0.714 | 0.708
318.15 K | 0.843 | 0.797 | 0.753 | 0.713 | 0.68 | 0.653 | 0.636 | 0.624 | 0.618

COC(=O)CC(=O)OC + CC(C)=O
[1], 303.15 K, 101 kPa
Details | viscosity [mPa·s]
x1 = 0.0666 | 0.4127
x1 = 0.139 | 0.5371
x1 = 0.2164 | 0.6676
x1 = 0.3009 | 0.8036
x1 = 0.392 | 0.9488
x1 = 0.4919 | 1.094
x1 = 0.6008 | 1.258
x1 = 0.7208 | 1.429
x1 = 0.8531 | 1.614

Cc1ccc[n+](CCCO)c1.[Cl-] + O
viscosity [mPa·s], [1], 100 kPa
Details | x1 = 0.001832 | x1 = 0.002695 | x1 = 0.003588 | x1 = 0.005369 | x1 = 0.007151 | x1 = 0.008924
293.15 K | 1.065 | 1.09 | 1.114 | 1.16 | 1.204 | 1.246
298.15 K | 0.943 | 0.965 | 0.986 | 1.025 | 1.063 | 1.1
303.15 K | 0.841 | 0.86 | 0.877 | 0.912 | 0.945 | 0.976
308.15 K | 0.757 | 0.773 | 0.789 | 0.819 | 0.848 | 0.876
313.15 K | 0.682 | 0.696 | 0.709 | 0.735 | 0.76 | 0.784

O=C1CCCO1 + COC(=O)OC
viscosity [mPa·s], [1]
Details | 293.15 K | 298.15 K | 303.15 K | 308.15 K | 313.15 K | 318.15 K | 323.15 K
101 kPa, x2 = 0.1013 | 1.635 | 1.52 | 1.413 | 1.316 | 1.231 | 1.154 | 1.083
101 kPa, x2 = 0.2013 | 1.437 | 1.331 | 1.237 | 1.154 | 1.08 | 1.013 | 0.953
101 kPa, x2 = 0.3001 | 1.277 | 1.186 | 1.104 | 1.033 | 0.968 | 0.91 | 0.857
101 kPa, x2 = 0.4006 | 1.138 | 1.058 | 0.987 | 0.923 | 0.867 | 0.816 | 0.77
101 kPa, x2 = 0.5 | 1.018 | 0.95 | 0.889 | 0.836 | 0.786 | 0.742 | 0.701
101 kPa, x2 = 0.5986 | 0.918 | 0.856 | 0.802 | 0.753 | 0.709 | 0.669 | 0.634
101 kPa, x2 = 0.6999 | 0.83 | 0.776 | 0.728 | 0.685 | 0.647 | 0.612 | 0.58
101 kPa, x2 = 0.7989 | 0.75 | 0.702 | 0.659 | 0.62 | 0.585 | 0.553 | 0.524
101 kPa, x2 = 0.8995 | 0.685 | 0.644 | 0.605 | 0.57 | 0.538 | 0.51 | 0.483
101.3 kPa, x2 = 0.1282 | – | 1.22 | – | – | – | – | –
101.3 kPa, x2 = 0.1724 | – | 1.14 | – | – | – | – | –
101.3 kPa, x2 = 0.2631 | – | 0.99 | – | – | – | – | –
101.3 kPa, x2 = 0.4545 | – | 0.85 | – | – | – | – | –
101.3 kPa, x2 = 0.5555 | – | 0.83 | – | – | – | – | –
101.3 kPa, x2 = 0.6603 | – | 0.76 | – | – | – | – | –
101.3 kPa, x2 = 0.7792 | – | 0.78 | – | – | – | – | –
101.3 kPa, x2 = 0.8823 | – | 0.67 | – | – | – | – | –
